Where a SMILES comes first, the peptide text is derived from it. The star is where a group is joined. C18 diacid = O=C(O)CCCCCCCCCCCCCCCCC(=O)*
Legend:
Type in all cases: cell-based
GLP1 receptor (GLP1R) = molecular target: T1, GLP1 receptor (GLP1R) (Homo sapiens, UniProt P43220); experiment: cAMP assay - selectivity, antagonism at GLP1 receptor; settings: Table 3A; COS-7 cells; agonist GLP1 at 50-80% of maximal cAMP
T1 construct: expressed in transfected cells; host or cells: COS-7 (transient)
Protocol: (§1) Transient transfected COS-7 cells expressing the either of the GLP1 receptor (GLP1R), GLP2 receptor (GLP2R), glucagon receptor (GcgR) or secretin receptor (SCTR) were seeded in white 96-well plates with a density of 3.5*10^4/well. The day after, the cells were washed twice with Hepes buffered saline (HBS) buffer and incubated with HBS and 1 mM 3-isobutyl-1-methylxanthine (IBMX) for 30 min at 37° C. To test for agonistic properties, ligands were added and incubated for 30 min at 37° C. In order to test for antagonistic properties, the cells were preincubated with the antagonists for 10 min prior to the addition the natural agonist for the expressed receptor (GLP1 for GLP1R expressing cells, GLP2 for GLP2R expressing cells, glucagon for the GcgR and secretin for the SCTR) and subsequent incubated for 20 additional min. […] The HitHunter™ cAMP XS assay (DiscoveRx) was carried out according to the manufacturer's instructions.

glucagon receptor (GcgR) = molecular target: T2, glucagon receptor (GcgR) (Homo sapiens, UniProt P47871); experiment: cAMP assay - selectivity, antagonism at glucagon receptor; settings: Table 3A; COS-7 cells; agonist glucagon at 50-80% of maximal cAMP
T2 construct: expressed in transfected cells; host or cells: COS-7 (transient)
T2 sequence (P47871 26-477, species assumed): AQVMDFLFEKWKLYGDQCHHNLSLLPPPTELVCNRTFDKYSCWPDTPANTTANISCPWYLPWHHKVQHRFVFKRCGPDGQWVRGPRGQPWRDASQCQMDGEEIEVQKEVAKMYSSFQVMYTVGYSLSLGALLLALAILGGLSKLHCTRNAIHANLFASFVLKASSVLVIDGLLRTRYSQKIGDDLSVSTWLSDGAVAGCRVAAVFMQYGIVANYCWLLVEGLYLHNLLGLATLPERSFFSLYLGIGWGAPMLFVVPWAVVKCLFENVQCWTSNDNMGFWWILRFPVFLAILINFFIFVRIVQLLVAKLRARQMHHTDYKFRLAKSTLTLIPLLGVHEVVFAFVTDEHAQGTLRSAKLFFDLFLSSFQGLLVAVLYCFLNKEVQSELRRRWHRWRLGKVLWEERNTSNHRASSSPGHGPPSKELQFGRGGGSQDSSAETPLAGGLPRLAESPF
Protocol: as §1

human GIP receptor [1] = molecular target: T3, human GIP receptor (Homo sapiens, UniProt P48546); experiment: cAMP antagonism (CisBio cAMP Dynamic 2 HTRF assay); parameters: pCMV-Script vector
T3 sequence (P48546 22-466): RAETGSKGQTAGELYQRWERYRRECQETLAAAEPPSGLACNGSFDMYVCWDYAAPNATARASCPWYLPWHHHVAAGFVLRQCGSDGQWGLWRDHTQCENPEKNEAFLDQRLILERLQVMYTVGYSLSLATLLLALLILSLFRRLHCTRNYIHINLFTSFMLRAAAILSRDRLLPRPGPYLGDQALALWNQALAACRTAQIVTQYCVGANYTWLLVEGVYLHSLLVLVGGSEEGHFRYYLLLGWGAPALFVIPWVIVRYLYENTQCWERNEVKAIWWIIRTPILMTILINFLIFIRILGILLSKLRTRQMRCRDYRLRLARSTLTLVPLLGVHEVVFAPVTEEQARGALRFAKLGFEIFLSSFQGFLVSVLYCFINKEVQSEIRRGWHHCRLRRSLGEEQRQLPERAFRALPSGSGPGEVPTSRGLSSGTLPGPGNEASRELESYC
Outline: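 Four-parameter fits of cAMP dose-response gave pIC50. cAMP fall was quantified by HTRF competition, ratio 665/620 nm after 60 min at room temperature, against a cAMP standard curve.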

human GIP receptor [2] = molecular target: T3, human GIP receptor; experiment: cAMP agonism (CisBio cAMP Dynamic 2 HTRF assay); settings: HEK293, read-out: cAMP agonism, % Efficacy, Table 1C, HEK-293 cells
Protocol: To test for agonistic properties at the GIP receptor, compounds were diluted and added to cells as described above and incubated for 30 min at 37° C. The resulting increase in intracellular cAMP was determined using the CisBio cAMP Dynamic 2 HTRF Assay Kit as described above.

secretin receptor (SCTR) = molecular target: T4, secretin receptor (SCTR) (Homo sapiens, UniProt P47872); experiment: cAMP assay - selectivity, antagonism at secretin receptor; settings: Table 3B; COS-7 cells; agonist secretin
T4 construct: expressed in transfected cells; host or cells: COS-7 (transient)
T4 sequence (P47872 23-440, species assumed): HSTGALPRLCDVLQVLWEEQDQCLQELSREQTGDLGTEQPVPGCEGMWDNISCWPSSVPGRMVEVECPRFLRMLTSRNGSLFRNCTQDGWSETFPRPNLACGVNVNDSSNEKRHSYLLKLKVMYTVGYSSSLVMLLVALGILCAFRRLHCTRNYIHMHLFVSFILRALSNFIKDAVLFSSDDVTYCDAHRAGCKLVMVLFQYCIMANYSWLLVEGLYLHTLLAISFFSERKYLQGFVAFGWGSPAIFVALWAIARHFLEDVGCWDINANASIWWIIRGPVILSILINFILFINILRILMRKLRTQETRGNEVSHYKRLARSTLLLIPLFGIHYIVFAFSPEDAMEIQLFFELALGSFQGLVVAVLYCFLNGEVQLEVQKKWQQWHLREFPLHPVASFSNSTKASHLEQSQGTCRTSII
Protocol: as §1

GLP2 receptor (GLP2R) = molecular target: T5, GLP2 receptor (GLP2R) (Homo sapiens, UniProt O95838); experiment: cAMP assay - selectivity, antagonism at GLP2 receptor; settings: Table 3B; COS-7 cells; agonist GLP2
T5 construct: expressed in transfected cells; host or cells: COS-7 (transient)
T5 sequence (O95838 1-553): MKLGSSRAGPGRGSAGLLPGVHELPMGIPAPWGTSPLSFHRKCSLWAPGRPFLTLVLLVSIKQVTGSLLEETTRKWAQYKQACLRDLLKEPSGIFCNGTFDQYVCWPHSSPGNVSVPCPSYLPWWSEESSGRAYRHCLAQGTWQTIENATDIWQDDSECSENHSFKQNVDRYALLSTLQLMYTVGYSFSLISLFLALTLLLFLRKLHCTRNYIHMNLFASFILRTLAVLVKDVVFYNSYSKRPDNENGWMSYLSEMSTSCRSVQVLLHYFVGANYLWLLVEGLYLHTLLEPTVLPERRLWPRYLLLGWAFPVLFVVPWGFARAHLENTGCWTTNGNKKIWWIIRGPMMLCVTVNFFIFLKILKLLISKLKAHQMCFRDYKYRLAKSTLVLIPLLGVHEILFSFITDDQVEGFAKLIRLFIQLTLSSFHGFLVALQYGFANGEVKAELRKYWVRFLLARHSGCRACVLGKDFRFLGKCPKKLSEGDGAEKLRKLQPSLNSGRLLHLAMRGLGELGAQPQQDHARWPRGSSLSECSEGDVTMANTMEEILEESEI
Protocol: as §1

T1 sequence (P43220 24-463, species assumed): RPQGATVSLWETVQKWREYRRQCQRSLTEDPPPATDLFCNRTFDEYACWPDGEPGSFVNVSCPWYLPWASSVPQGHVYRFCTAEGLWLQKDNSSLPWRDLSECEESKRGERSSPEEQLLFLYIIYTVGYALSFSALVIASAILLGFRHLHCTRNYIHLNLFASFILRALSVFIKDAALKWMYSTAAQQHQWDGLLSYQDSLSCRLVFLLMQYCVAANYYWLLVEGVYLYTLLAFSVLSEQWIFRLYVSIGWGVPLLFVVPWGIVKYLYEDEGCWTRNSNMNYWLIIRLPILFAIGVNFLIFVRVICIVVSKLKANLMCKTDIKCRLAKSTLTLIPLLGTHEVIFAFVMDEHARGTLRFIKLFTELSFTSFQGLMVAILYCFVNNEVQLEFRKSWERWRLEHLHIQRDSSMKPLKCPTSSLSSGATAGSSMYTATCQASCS

CC[C@H](C)[C@H](NC(=O)[C@H](CO)NC(=O)[C@H](Cc1ccc(O)cc1)NC(=O)[C@H](CC(=O)O)NC(=O)[C@H](CO)NC(=O)[C@@H](NC(=O)[C@H](Cc1ccccc1)NC(=O)[C@@H](NC(=O)CNC(=O)[C@@H](N)CO)[C@@H](C)O)[C@@H](C)CC)C(=O)N[C@@H](C)C(=O)N[C@@H](CCSC)C(=O)N[C@@H](CC(=O)O)C(=O)N[C@@H](CCCNC(=N)N)C(=O)N[C@H](C(=O)N[C@@H](CCCCNC(=O)CCCCCCCCCCCCCCCCC(=O)O)C(=O)N[C@@H](CCC(N)=O)C(=O)N[C@@H](CCC(N)=O)C(=O)N[C@@H](CC(=O)O)C(=O)N[C@@H](Cc1ccccc1)C(=O)N[C@H](C(=O)N[C@@H](CC(N)=O)C(=O)N[C@@H](Cc1c[nH]c2ccccc12)C(=O)N[C@@H](CC(C)C)C(=O)N[C@@H](CC(C)C)C(=O)N[C@@H](C)C(=O)N[C@@H](CCC(N)=O)C(=O)N[C@@H](CCCNC(=N)N)C(N)=O)C(C)C)[C@@H](C)CC [AT393] (H-SGTFISDYSIAMDRIK(C18 diacid)QQDFVNWLLAQR-NH2; N-terminus assumed) was tested, and the “GLP-1R, Antagonism, nM” value (GLP1 receptor (GLP1R)) was “No antagonism”, the “Glucagon R, Antagonism, nM” value (glucagon receptor (GcgR)) was “No antagonism” and the IC50 (human GIP receptor [1]; GIPR, Antagonism, nM, Table 3C, CisBio assay) was 33.5 nM. For the same compound, the “cAMP antagonism, % inhib” value (human GIP receptor [1]; Table 1C, CisBio, HEK-293 cells) was 78%, the “GIPR, Antagonism, % inhib” value (human GIP receptor [1]; Table 3C, CisBio assay) was 78% and the IC50 (human GIP receptor [1]; cAMP antagonism, nM (IC50), Table 1C, CisBio, HEK-293 cells, agonist GIP1-42 at EC50) was 33.5 nM. The Emax (human GIP receptor [2]) was 6%, the “Secretin R, Antagonism” value (secretin receptor (SCTR)) was “No antagonism” and the “GLP-2R, Antagonism” value (GLP2 receptor (GLP2R)) was “No antagonism”.
